pIC50: −log10 of the molar value.
Tests used:
[1] = system: Human coronary artery smooth muscle cells; assay: Inhibiting effect on PDGF-stimulated smooth muscle cell growth (3H-thymidine method); type: cell-based; conditions: PDGF-BB 20 ng/mL, 16 h
Protocol: Effect on PDGF-stimulated smooth muscle cell growth was estimated by the following method to verify inhibitory activity of the pyrazole derivative of the present invention against smooth muscle cell growth. (Test method)
Human coronary artery smooth muscle cells seeded on a 96-well plate (2×10^4 cell/well) were incubated in a complete medium consisting of a basal medium (SmGM-2: Iwaki Glass Co., Japan), FBS (5%), EGF (0.5 ng/mL), insulin (0.005 mg/mL), and basic-FGF (2 ng/mL) for 24 h until confluent. The medium was replaced by the basal medium followed by incubation for further 24 h to lead cells to GO stage.
The medium was replaced by a medium consisting of the basal medium and PDGF-BB (20 ng/mL) to induce PDGF-stimulated cell growth, and a DMSO solution of a test sample was added followed by incubation for 16 h. Then, inhibition of cell growth was estimated by a ^3 H-thymidine method as described in Example 22.
Tranilast was used as positive reference.

[2] = system: BALB/c 3T3 cells; assay: Inhibiting effect on PDGF-stimulated cell growth (3H-thymidine uptake); type: cell-based; conditions: Mus musculus, BALB/c3T3, PDGF-AA or PDGF-BB 10 ng/mL, 16 h; for inhibition at 3 µM: concentration 3 μM
Protocol: Effect on PDGF-stimulated cell growth was estimated by the following method using fibroblasts, growth of which is induced by PDGF in the same manner of smooth muscle cells to verify inhibitory activity of the pyrazole derivative of the present invention against PDGF-stimulated cell growth.
BALB/c 3T3 cells seeded on a 96-well plate (3-5×10^3 cell/well) were incubated in a high glucose Dulbecco's modified Eagle's medium (DME medium) containing 10% fetal bovine sera (FBS) for 2-3 days until confluent. The medium was replaced by high glucose DME medium containing 0.5% platelet poor plasma (PPP) followed by incubation for further 24 h.
The medium was replaced by high glucose DME medium containing PDGF-AA or PDGF-BB (10 ng/mL) to induce PDGF-stimulated cell growth, and a DMSO solution of a test sample was added followed by incubation for 16 h. Then, ^3 H-thymidine (1 mCi/ml) was 20-fold diluted by Ca^2+ and Mg^2+ free phosphate-bufferized saline, and 0.02 mL of the resulted solution was added followed by incubation for further 4 h. Final concentration of DMSO was not more than 0.25%.
After ^3 H-thymidine in the medium was washed out, cells were treated with trypsin/EDTA and collected using a cell-harvester. Amount of ^3 H-thymidine taken in the cells was measured by a liquid scintillation counter. […] Growth inhibition was estimated by difference of the amount of ^3 H-thymidine taken between the test incubation and the reference incubation.

[3] = system: re-narrowing; conditions: Rinsho Iyaku, 12, 65-85 (1996); cited from earlier work
[4] = system: smooth muscle cell; conditions: as reported in literature; cited from earlier work
[5] = system: hepatic function; conditions: clinical use; cited from earlier work
[6] = system: smooth muscle cell; conditions: Atherosclerosis, 107, 179-185 (1994); cited from earlier work

SMILES | pIC50 [1] | inhibition at 3 µM [2] [%] | also measured
CCCN(CCC)C(=O)Nc1nn(Cc2ccccc2)cc1C(=O)OCC [Example 15, N, N-dipropyl-N'-(1-benzyl-4-ethoxycarbonylpyrazol-3-yl)urea] | 5.66 |  | 
CCOC(=O)c1cn(Cc2ccccc2)nc1N(Cc1ccccc1)C(=O)Nc1ccccc1 [Example 18, N-phenyl-N'-benzyl-N'-(1-benzyl-4-ethoxycarbonylpyrazol-3-yl)urea] | 5.52 |  | 
CCOC(=O)c1cn(Cc2ccccc2)nc1NC(=O)N(c1ccccc1)c1ccccc1 [Example 16, N, N-diphenyl-N'-(1-benzyl-4-ethoxycarbonylpyrazol-3-yl)urea] | 5.96 |  | 
CCCNC(=O)Nc1c(C(=O)OCC)cnn1-c1ccccc1 [Example 7, N-propyl-N'-(4-ethoxycarbonyl-1-phenylpyrazol-5-yl)urea] |  | 36.4 | 
CCCNC(=O)Nc1nn(Cc2ccccc2)cc1C(=O)OCC [Example 1, N-propyl-N'-(1-benzyl-4-ethoxycarbonylpyrazol-3-yl)urea] | 5.64 | 84.5 | 
CCOC(=O)c1cn(Cc2ccccc2)nc1NC(=O)NC(C)C [Example 8, N-isopropyl-N'-(1-benzyl-4-ethoxycarbonylpyrazol-3-yl)urea] | 5.89 |  | 
CCOC(=O)c1cnn(-c2ccccc2)c1NC(=O)Nc1ccccc1 [Example 6, N-phenyl-N'-(4-ethoxycarbonyl-1-phenylpyrazol-5-yl)urea] |  | 49.9 | 
CCCCn1cc(C(=O)OCC)c(NC(=O)Nc2ccccc2)n1 [Example 2, N-phenyl-N'-(1-butyl-4-ethoxycarbonylpyrazol-3-yl)urea] | 5.51 | 81.9 | 
COc1ccc(/C=C/C(=O)Nc2ccccc2C(=O)O)cc1OC [tranilast, N-(3,4-dimethoxycinnamoyl) anthranilic acid, reference compound] | 5.30 |  | prevention of clinical re-narrowing after percutaneous transluminal angioplasty [3]: prevent clinical re-narrowing after percutaneous transluminal angioplasty; inhibition of PDGF-stimulated smooth muscle cell growth [4]: reported to inhibit PDGF-stimulated smooth muscle cell growth; side effects on hepatic function [5]: often causes side effects on hepatic function; inhibition of growth of smooth muscle cell [6]: inhibit growth of smooth muscle cell; inhibition at 10 µM ([2]; concentration 10 μM): 19.2%; inhibition at 30 µM ([2]; concentration 30 μM): 57.1%; inhibition at 100 µM ([2]; concentration 100 μM): 92.5%
CCCCn1cc(C(=O)OCC)c(NC(=S)Nc2ccccc2)n1 [Example 3, N-phenyl-N'-(1-butyl-4-ethoxycarbonylpyrazol-3-yl)thiourea] | 5.82 | 89.5 | 

From patent US5849779A, “Pyrazole derivatives and their pharmaceutical use” (Japan Energy Corporation, priority 1996, dated 1998)
